# Non-standard residues stand in square brackets, D forms with d. Residues, ends and D or L forms follow the SMILES beside them. No end group written: not given here.
# Tests used:
# [1] = system: anti-KLH antibody production; assay: Suppressive effect on anti-KLH antibody production in mice (ELISA of serum IgG); type: in vivo, Balb/c mice; details: for Anti-KLH IgG antibody titer (unit ± SD): Example 3, 100 µg subcutaneously day 5 and day 3 prior to KLH, blood day 21 after antigen; for Anti-KLH IgG antibody titer (unit ± SD) / Anti-KLH antibody titer (unit ± SD): 8 mice per group; for antibody production (anti-KLH) / Anti-KLH antibody titer (unit ± SD): Example 7; for Anti-KLH antibody titer (unit ± SD): in a similar manner to Example 3
# Description: Day 5 and day 3 prior to the antigen administration, 100 µg of each Peptide (I) to (VI) of the present invention composed of 9 amino acid residues indicated by Sequence ID No. 1 in the Sequence Listing were dissolved in 200 µl of physiological saline. The resulting solution was subcutaneously administered to 9-week-old Balb/c mice. As a control, a non-administered group to which the same amount of physiological saline was administered was employed. In 200 µl of physiological saline, 25 µg of KLH were dissolved as an antigen and the resulting solution was subcutaneously administered. The blood was collected on day 21 after antigen administration and an antibody titer was measured by the method which is described below.
# KLH was diluted to 10 µg/ml with a phosphate buffered physiological saline (PBS). Fifty µl portions of the resulting solution were poured into a 96-well microplate and the plate was allowed to stand at 4iC overnight. After the microplate was washed three times with 0.05% Tween-20-containing PBS (T-PBS), 200 µl portions of 0.5% casein tris-buffered physiological saline (casein TBS) were poured into wells, respectively. […] The microplate was washed three times with T-PBS and 50 µl portions of the mouse serum diluted to 1/200 with casein TBS were poured into the wells, followed by reaction for one hour (primary reaction).
# The resulting microplate was washed three times with T-PBS, to which 50 µl portions of an anti-mouse IgG-peroxidase-labeled antibody (TAGO Co.) diluted to 1/4000 with casein TBS were poured. The reaction was effected at room temperature for one hour (secondary reaction). After the completion of the secondary reaction, the plate was washed three times again. Fifty µl portions of a substrate liquid/chromogen (chromogen substrate: Behringwerke AG) were poured into wells, respectively, followed by reaction at room temperature for 30 minutes. After the completion of the reaction, 0.5N diluted sulfuric acid was added to terminate the reaction and an absorbance at 450 nm was measured by a colorimeter ("BEP-II", product of Behringwerke AG/Germany) with the absorbance at 650 nm as a control.
# In a similar manner to Example 3, suppressive effects of Peptides (I), (VII) to (XV) on anti-KLH antibody production in mice were studied.
# [2] = system: anti-OVA antibody production; assay: Suppressive effect on anti-OVA antibody production in mice (ELISA of serum IgG); type: in vivo, Balb/c mice; parameters: Anti OVA Ig-G antibody titer (unit): dose or concentration left out as unconfirmed; details: for Anti-OVA antibody titer: in a similar manner to Example 2
# Description: Day 5 and day 3 prior to the antigen administration, Peptide (I) composed of 9 amino acid residues as indicated by Sequence ID No. 1 in the Sequence Listing of the present invention and a synthetic peptide 15 composed of 15 amino acid residues derived from clone 17.2 TcR, which peptide had been reported by Mohapatra et al. as described above, 100 g each, were dissolved in 200 of physiological saline and each solution thus obtained was subcutaneously administered to 9-week-old Balb/c mice. As a control, a non-administered group to which the same amount of physiological saline was administered was employed. In 200 I of physiological saline, 100 g of OVA (Sigma Chemical Co.) were dissolved, followed by subcutaneous administration. Blood was collected on day 21 after antigen administration and an antibody titer was measured by the method described below.
# OVA was diluted to 10 µg/ml with phosphate buffered saline (PBS) and 50 I portions of the solution were poured in a 96-well microplate. The coating operation was conducted overnight at […]. The microplate was then washed three times with a 0.05% Tween-20-containing PBS (T-PBS). 200 portions of 0.5% casein-containing tris buffered physiological saline (casein TBS) were poured in each well and the microplate was allowed to stand at room temperature for one hour. The microplate was then washed three times with T-PBS. After the serum of the blood collected from the mice was diluted to 1/200 with 0.5% casein TBS, 50 I portions of the diluted serum were poured in each well and the plate was allowed to stand for one hour (primary reaction).
# After the completion of the primary reaction, the microplate was washed three times with T-PBS. Fifty I portions of anti-mouse IgG-peroxidase-labeled antibody (TAGO Co.) diluted to 1/4000 with 0.5% casein TBS were poured in each well, followed by reaction at room temperature for one hour (secondary reaction). After the completion of the secondary reaction, the plate was washed three times again. Fifty I portions of a substrate liquid/chromogen (chromogen substrate: Behringwerke AG) were poured in each well, followed by reaction at room temperature for 30 minutes. After the completion of the reaction, 0.5N diluted sulfuric acid was added to terminate the reaction and an absorbance at 450 nm was measured by a colorimeter ("BEP-II", product of Behringwerke AG/Germany) with an absorbance at 650 nm as a control.
# In a similar manner to Example 2, the suppressive effects of Peptides (I), (VII) to (XIV) on the anti-OVA antibody production in mice were measured.
# [3] = system: EAE model mice; assay: Onset suppressive effect on EAE model mice (clinical score); type: in vivo, SJL mouse; parameters: key to average score ± SD: EAE onset score per Pettinelli et al. 1982 criteria; details: for average score ± SD: score 0-6
# Description: As an antigen, guinea pig spinal chord homogenate was employed. The guinea pig spinal chord homogenate was diluted with PBS to be 6.6 mg/ml, followed by the addition of the equivalent amount of Freund ? s complete adjuvant. The resulting mixture was formed into an emulsion by an ultrasonic sonicator. The resulting emulsion was administered to two areas under the lateral skin in a total amount of 300 µl. Day 5 and day 3 prior to antigen administration, and 5 days a week for 4 weeks after antigen administration, the solution of Peptide (I) dissolved in 100 µl physiological saline was subcutaneously administered to a 14-week old SJL mouse. Incidentally, in order to increase an onset ratio, […] of pertussis toxin (PTX) were intravenously administered as an enhancer on the day of antigen administration and two days after antigen administration. Observation of the onset was performed from day 14 to day 28 after primary antigen administration. The onset was scored based on the following standard criteria [Pettinelli, C. B., Fritz, D. E., and McFarlin, D. E. J. Immunl., 129, No. 3, 1024-1028 (1982)]. In Table 3, values of average score + standard deviation (SD) in each administration group on day 22, day 25 and day 28 after primary antigen administration are shown.
# [4] = compared with Peptide (I) administered group
# [5] = Example 8, compared with Peptide (I) administered group
# [6] = Example 8, compared with the non-administered group and Peptide (I) administered group
# [7] = compared with the non-administered group and Peptide (I) administered group
Compound,Anti-KLH IgG antibody titer (unit ± SD) [1],"Anti-OVA antibody titer ([2]; Example 8, 8 mice per group)","antibody production (anti-KLH) [1, 4]",Anti-KLH antibody titer (unit ± SD) [1],also measured
CC(C)C[C@@H](NC(=O)[C@@H](CCCCN)NC(=O)[C@@H](C)N)C(=O)N[C@@H](C(=O)N[C@H](Cc1ccccc1)C(=O)NCC(=O)N[C@H](CCCCN)C(=O)NCC(=O)N[C@@H](C(=O)O)[C@H](C)O)[C@H](C)O [Peptide (II)] (H-[dA][dK][dL][dT][dF]G[dK]G[dT]-OH),48.4 ± 13.1 unit,,,,
CC(=O)N[C@H](C)C(=O)N[C@H](CCCCN)C(=O)N[C@H](CC(C)C)C(=O)N[C@@H](C(=O)N[C@H](Cc1ccccc1)C(=O)NCC(=O)N[C@H](CCCCN)C(=O)NCC(=O)N[C@@H](C(=O)O)[C@H](C)O)[C@H](C)O [Peptide (V)] (Ac-[dA][dK][dL][dT][dF]G[dK]G[dT]-OH),37.7 ± 17.7 unit,,,,
CC(=O)N[C@H](C)C(=O)N[C@H](CCCCN)C(=O)N[C@H](CC(C)C)C(=O)N[C@@H](C(=O)N[C@H](Cc1ccccc1)C(=O)NCC(=O)N[C@H](CCCCN)C(=O)NCC(=O)N[C@@H](C(N)=O)[C@H](C)O)[C@H](C)O [Peptide (VI)] (Ac-[dA][dK][dL][dT][dF]G[dK]G[dT]-NH2),29.5 ± 19.5 unit,,,,
AALTFGKG [Peptide (VIII)],,65.3 ± 34.7,not suppressed,44.9 ± 18.1 unit,
AKATFGKG [Peptide (XIII)],,193.5 ± 155.9,not suppressed,68.9 ± 25.1 unit,"antibody production (anti-OVA) [2, 5]: not suppressed"
AKLAFGKG [Peptide (IX)],,10.4 ± 6.3,,33.9 ± 13.7 unit,"antibody production (anti-OVA) [2, 6]: significantly suppressed; antibody production (anti-KLH) [1, 7]: significantly suppressed"
AKLTAGKG [Peptide (XIV)],,90.9 ± 89.5,not suppressed,59.9 ± 32.8 unit,"antibody production (anti-OVA) [2, 5]: not suppressed"
AKLTFAKG [Peptide (X)],,49.8 ± 28.4,,26.5 ± 22.0 unit,"antibody production (anti-KLH) [1, 7]: significantly suppressed"
AKLTFGAG [Peptide (XI)],,15.3 ± 14.3,,19.9 ± 15.9 unit,"antibody production (anti-OVA) [2, 6]: significantly suppressed; antibody production (anti-KLH) [1, 7]: significantly suppressed"
AKLTFGKA [Peptide (XII)],,50.9 ± 26.7,not suppressed,49.5 ± 40.1 unit,
AKLTFGKG [Peptide (VII)],,20.9 ± 21.4,,25.9 ± 15.4 unit,"antibody production (anti-OVA) [2, 6]: significantly suppressed; antibody production (anti-KLH) [1, 7]: significantly suppressed"
AKLTFGKGT [Peptide (I)],78.7 ± 28.3 unit,23.8 ± 12.4,,39.5 ± 16.1 unit,"average score ± SD ([3]; 1 µg/body subcutaneously, Day 22 after primary antigen administration): 1.6 ± 1.8; average score ± SD ([3]; 1 µg/body subcutaneously, Day 25 after primary antigen administration): 0.9 ± 1.1; average score ± SD ([3]; 1 µg/body subcutaneously, Day 28 after primary antigen administration): 1.8 ± 1.9; onset of EAE ([3]; 5 µg/body group compared with the physiological saline group): suppressed on day 25 and day 28 with a significant difference of 5%; average score ± SD ([3]; 5 µg/body subcutaneously, Day 22 after primary antigen administration): 0.4 ± 0.7; average score ± SD ([3]; 5 µg/body subcutaneously, Day 25 after primary antigen administration): 1.0 ± 1.1; average score ± SD ([3]; 5 µg/body subcutaneously, Day 28 after primary antigen administration): 0.7 ± 0.8; onset of EAE ([3]; 25 µg/body group compared with the physiological saline group, from day 22): suppressed from day 22 with a significant difference of 5%; onset of EAE ([3]; 25 µg/body group compared with the physiological saline group, from day 25): suppressed with a significant difference of 1%; average score ± SD ([3]; 25 µg/body subcutaneously, Day 22 after primary antigen administration): 0.3 ± 0.4; average score ± SD ([3]; 25 µg/body subcutaneously, Day 25 after primary antigen administration): 0.1 ± 0.3; average score ± SD ([3]; 25 µg/body subcutaneously, Day 28 after primary antigen administration): 0.0 ± 0.0; onset of EAE ([3]; administration of Peptide (I), overall statement): suppressed; antibody production (anti-OVA) ([2]; Example 2, compared with the non-administered group): significantly suppressed; Anti OVA Ig-G antibody titer (unit) ([2]; Example 2, subcutaneously day 5 and day 3 prior to OVA, blood day 21 after antigen, 8 mice per group, mean ± spread): 8.8 ± 10.8 unit"
Ac-AKLTFGKGT [Peptide (III)],50.1 ± 25.8 unit,,,,
KLTFGKG [Peptide (XV)],,,not suppressed,86.4 ± 27.8 unit,
